The nature of series [1]: Pharmacokinetic study, single I.V. bolus dose in beagle dog. The class given is in vivo. As to conditions: iv, single I.V. bolus dose 15 mg/kg (table title), Compound No. 4 and linezolid in 5% Tween, other compounds in cyclodextrin, serum; for concentration at 12 hr: read-out: C-12 hr; for AUC(0-t): read-out: AUC (0-24 hr). The procedure:
Blood samples were collected at time points of 0, 0.08 (not for oral), 0.25, 0.50, 1.0, 1.5, 2.0, 3.0, 4.0, 5.0, 6.0, 8.0, 10.0, 12.0 and 24.0 hours. To facilitate i.v. dosing and collection of blood samples, the dogs were implanted with cannula in cephalic vein. Serum obtained from blood samples was used for HPLC-based analysis.
Serum samples were extracted by solid phase extraction technique using Water's OASIS HLB cartridges. An HPLC-Diode array detection system was used for analysis. Prepared samples were chromatographed on a YMC-AM reversed phase column (150×4.6 mm ID; 5 μm) using an isocratic mobile phase acetate buffer (50 mmol ammonium acetate pH 6.6) acetonitrile, 66:34% v/v (for a representative compound of the invention, 68:32% v/v for compound Nos. 30, 3, 7 and 11 of U.S. Pat. No. 5,668,286, and 75:25% v/v for linezolid) at a flow rate of 1 ml/min, measured at λmax 254 nm. Independently prepared analytical standards and quality control samples were analyzed with each set of unknown samples.
The pharmacokinetics of a representative compound of the invention following single I.V. bolus dose administration of the compound in beagle dog is shown in Table 3.

Series [2] concerns Enterococcus faecalis ATCC 29212. Put plainly: In-vitro MIC test (agar dilution), E. faecalis. The settings on record: ATCC29212, Mueller Hinton agar, 24 hrs at 35° C., read-out: Minimum Inhibitory Concentrations (MIC) E. faecalis. The class given is cell-based. From the text:
(§1) The test methods used for verifying the antimicrobial action of compound within the scope of this invention are essentially the same as those described in PCT WO 95/25106, U.S. Pat. No. 5,668,286 and EP 0 750, 618 B1, with the difference that the strains of the organisms used for the MIC determinations in these patents and applications are Staphylococcus aureus ATCC 25923, Staphylococcus epidermidis ATCC 12828, Streptococcus pyogenes ATCC 19615.
(§2) The in-vitro MIC methods of test compounds were determined essentially as described in PCT WO 95/25106, U.S. Pat. No. 5,668,286 and EP 0 750 618 B1.
(§3) Overnight grown cultures of S. aureus organisms in Tryptic Soya broth were diluted in Mueller Hinton Broth to give optical density matching with MacFarland tube 0.5 standard. Cultures were further diluted 1:10 in Mueller Hinton broth. Using Denley's mutipoint inoculator, 10^4 cells were deposited on Mueller Hinton agar (Difco) containing range of 2 fold dilutions of test compounds. These plates were incubated for 24 hrs at 35° C. and MIC results recorded. MIC is defined as minimum drug concentration that inhibits test organisms. For determining MIC of test compounds against Streptococcus pneumoniae, Mueller Hinton agar containing 5% sheep blood was employed.
Background: In agar dilution, organisms are placed on agar that contains the substance at set levels.

In series [3] the test system is reticulocytes. Put plainly: Myelosuppressive potential: reticulocyte counts, 14-day oral dosing. The class given is in vivo, Wistar rats. The procedure: A group of 6 Wistar rats (3 male and 3 female) was exposed to a representative compound of the invention viz. compound No. 4 of the invention, by oral route at a single dose of 50 mg/kg per day for 14 consecutive days. Compound No.30 of U.S. Pat. No. 5,668,286 was also subjected to the same protocol. Linezolid (LNZ) was used as a comparator drug and was administered to rats (by oral route at a dose of 2×25 mg/kg per day for 14 consecutive days. Vehicle treated controls were maintained using identical experimental conditions. The treated as well as control rats were sacrificed 24 hr after the last dose.
A second parameter measured was the change in reticulocyte count, for which the following method was used.
Blood was collected on day 15 (24 hours after the last dose administration) from all the treated as well as control rats by retro-orbital sinus puncture using clean glass rat capillary tubes. […]
3 slides/animal were prepared according to NCCLS staining procedure for reticulocyte staining and counting. […] The percentage presence of reticulocyte was determined in 1000 erythrocytes and was expressed in terms of percentage of reticulocytes over erythrocytes. […]
Values in each of the first two columns above represent ratio of relative weight (calculated organ to body weight ratio) of spleen or thymus in drug treated animals v/s control animals. […]

Series [4] has as its system Streptococcus pneumoniae ATCC 49619. Nature of the series: In-vitro MIC test (agar dilution, 5% sheep blood), S. pneumoniae. Format: cell-based. The settings on record: ATCC49619, Mueller Hinton agar containing 5% sheep blood, read-out: Minimum Inhibitory Concentrations (MIC) S. pneumoniae.
Description: as §1, §2, §3

Molecules are shown by their SMILES. Values after ≈ are worked out from the molar mass of the structure shown.

A word on the Cmax: it is the peak of the concentration-time curve. Broadly, the half-life is the time needed for the level to fall by half in the phase considered. Read a low half-life as fast loss.

Turning to `CC(=O)NC[C@H]1CN(c2ccc(N3CCOCC3)c(F)c2)C(=O)O1` [Linezolid], in series [1], the maximum concentration (Cmax) was 7160 ng/mL, the concentration at 12 hr amounted to 0 ng/mL, the half-life is 2.41 h and the AUC(0-t) was 23300 ng·h/mL. In series [2], the MIC stood at 2 µg/mL (≈ 5.93 µM). Also, the “Ratio of % reticulocytes Retics (treated animal versus control animal)” value in series [3] (Wistar rats, oral, 14 consecutive days, 50 mg/kg per day (LNZ 2×25 mg/kg per day), blood on day 15, ratio less than 0.75 indicates myelosuppressive potential) is 0.43. Also, the MIC in series [4] worked out at 0.5 µg/mL (≈ 1.48 µM).

In the case of `CC(=O)NC[C@H]1CN(c2ccc(N3CCC(CC#N)CC3)c(F)c2)C(=O)O1` [Compound 4, (S)-N-{3-[4-(4-cyanomethyl-piperidin-1-yl)-3-fluoro-phenyl]-2-oxo-oxazolidin-5-ylmethyl}-acetamide], in series [1], the Cmax stood at 8280 ng/mL, the concentration at 12 hr turned out to be 2640 ng/mL, the half-life was 12.9 h and the AUC(0-t) turned out to be 80900 ng·h/mL. Besides, the MIC in series [2] stood at 2 µg/mL (≈ 5.34 µM). For the same compound, the “change in ratio of percentage reticulocytes of treated animal versus control animal (in words)” value in series [3] (rat, in vivo, po) is on record as “no significant change”. Also, in series [4], the MIC was found to be 1 µg/mL (≈ 2.67 µM).

The values above are taken from patent US20040235900A1, “Antimicrobial oxazolifinones with improved pharmacokinetic profile and safety advantages” (priority 2002, published 2004).
